# In patent US8129371B2, “Thienopyrimidine and pyrazolopyrimidine compounds and their use as mTOR kinase and PI3 kinase inhibitors” (Wyeth LLC, priority 2007, dated 2012):
# Like-named read-outs stand apart in the source and are kept apart here.
# Experiments:
# breast line MDA468 = test: In vitro cell culture growth assay (MTS), MDA468; format: cell-based; conditions: Homo sapiens, 72 h, MDA468 cells, three days after drug treatment
# Method in brief: (§1)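 Viable cell density is assessed three days after inhibitor addition via MTS conversion, normalised to vehicle-treated cells.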
# prostate line LNCap = test: In vitro cell culture growth assay (MTS), LNCap; format: cell-based; conditions: Homo sapiens, LNCaP, 72 h, LNCap cells, three days after drug treatment
# Method in brief: as §1
# PI3K [1] = molecular target: T1, PI3K (Homo sapiens, UniProt P48736); test: Fluorescence polarization assay for PI3K; format: biochemical; conditions: read-out: PI3 Kinase γ IC50
# T1 construct: PI3 Kinase γ IC50; other: PI3 Kinase γ; other: PI3 Kinase γ isoform, fluorescence polarization
# Method in brief: (§2)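 PI3K was preincubated with compound (final DMSO 1%), and the reaction was started with PIP2/ATP substrate and run 30–60 min. It was stopped with a detector mix giving 10 nM red probe and 70 nM GST-GRP.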
# PI3K [2] = molecular target: T2, PI3K (Homo sapiens, UniProt P42336); test: Fluorescence polarization assay for PI3K; format: biochemical; conditions: read-out: PI3 Kinase α IC50
# T2 construct: PI3 Kinase α IC50; other: PI3 Kinase α; other: PI3 Kinase α isoform, fluorescence polarization
# Method in brief: as §2
# Human mTOR (FLAG-TOR) = molecular target: T3, Human mTOR (FLAG-TOR) (Homo sapiens, UniProt P42345); test: Human mTOR kinase assay with purified enzyme, DELFIA format; format: biochemical
# T3 construct: FLAG
# Method in brief: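 Purified FLAG-mTOR in HEPES pH 7.4 buffer with 10 mM MnCl2 was preincubated with inhibitor and reacted 2 h at room temperature with His6-S6K substrate, then stopped with EDTA/EGTA. Phospho-T389 S6K detected by DELFIA with Eu-labelled antibody (40 ng/mL) after plate capture; inhibition computed from signal.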
# [3] = PI3 Kinase γ isoform, fluorescence polarization
# [4] = PI3 Kinase α isoform, fluorescence polarization
# [5] = purified human mTOR enzyme, DELFIA format
# T1 sequence (P48736 whole entry, canonical isoform): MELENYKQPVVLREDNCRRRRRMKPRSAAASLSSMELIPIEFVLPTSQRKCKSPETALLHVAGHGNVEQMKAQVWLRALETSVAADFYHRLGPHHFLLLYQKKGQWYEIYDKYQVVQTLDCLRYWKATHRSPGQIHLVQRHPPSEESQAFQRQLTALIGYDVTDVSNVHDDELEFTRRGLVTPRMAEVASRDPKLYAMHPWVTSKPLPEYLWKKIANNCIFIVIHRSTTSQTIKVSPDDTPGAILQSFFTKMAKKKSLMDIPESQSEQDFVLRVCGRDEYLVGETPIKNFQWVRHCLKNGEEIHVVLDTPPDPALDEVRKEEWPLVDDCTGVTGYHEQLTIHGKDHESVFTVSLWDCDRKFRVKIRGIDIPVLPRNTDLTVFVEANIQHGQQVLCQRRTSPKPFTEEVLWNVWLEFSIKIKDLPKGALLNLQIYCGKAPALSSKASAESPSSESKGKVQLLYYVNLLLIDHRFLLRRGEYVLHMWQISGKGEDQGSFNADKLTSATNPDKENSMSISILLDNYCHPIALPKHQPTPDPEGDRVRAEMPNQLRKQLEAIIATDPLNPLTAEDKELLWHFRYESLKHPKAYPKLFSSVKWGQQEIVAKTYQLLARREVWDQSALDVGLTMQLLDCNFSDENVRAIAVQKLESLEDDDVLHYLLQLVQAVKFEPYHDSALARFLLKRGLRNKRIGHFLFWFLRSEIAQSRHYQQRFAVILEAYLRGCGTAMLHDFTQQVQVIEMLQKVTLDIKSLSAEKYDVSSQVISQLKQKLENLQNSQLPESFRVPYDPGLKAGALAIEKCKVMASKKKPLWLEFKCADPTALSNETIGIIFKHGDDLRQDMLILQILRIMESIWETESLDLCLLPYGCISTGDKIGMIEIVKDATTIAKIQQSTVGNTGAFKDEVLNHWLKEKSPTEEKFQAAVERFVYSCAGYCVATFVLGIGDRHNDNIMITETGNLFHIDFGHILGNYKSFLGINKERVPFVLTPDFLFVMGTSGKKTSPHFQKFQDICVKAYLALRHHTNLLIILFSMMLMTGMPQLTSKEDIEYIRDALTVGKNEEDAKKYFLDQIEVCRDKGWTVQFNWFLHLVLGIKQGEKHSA
# T2 sequence (P42336 whole entry, canonical isoform): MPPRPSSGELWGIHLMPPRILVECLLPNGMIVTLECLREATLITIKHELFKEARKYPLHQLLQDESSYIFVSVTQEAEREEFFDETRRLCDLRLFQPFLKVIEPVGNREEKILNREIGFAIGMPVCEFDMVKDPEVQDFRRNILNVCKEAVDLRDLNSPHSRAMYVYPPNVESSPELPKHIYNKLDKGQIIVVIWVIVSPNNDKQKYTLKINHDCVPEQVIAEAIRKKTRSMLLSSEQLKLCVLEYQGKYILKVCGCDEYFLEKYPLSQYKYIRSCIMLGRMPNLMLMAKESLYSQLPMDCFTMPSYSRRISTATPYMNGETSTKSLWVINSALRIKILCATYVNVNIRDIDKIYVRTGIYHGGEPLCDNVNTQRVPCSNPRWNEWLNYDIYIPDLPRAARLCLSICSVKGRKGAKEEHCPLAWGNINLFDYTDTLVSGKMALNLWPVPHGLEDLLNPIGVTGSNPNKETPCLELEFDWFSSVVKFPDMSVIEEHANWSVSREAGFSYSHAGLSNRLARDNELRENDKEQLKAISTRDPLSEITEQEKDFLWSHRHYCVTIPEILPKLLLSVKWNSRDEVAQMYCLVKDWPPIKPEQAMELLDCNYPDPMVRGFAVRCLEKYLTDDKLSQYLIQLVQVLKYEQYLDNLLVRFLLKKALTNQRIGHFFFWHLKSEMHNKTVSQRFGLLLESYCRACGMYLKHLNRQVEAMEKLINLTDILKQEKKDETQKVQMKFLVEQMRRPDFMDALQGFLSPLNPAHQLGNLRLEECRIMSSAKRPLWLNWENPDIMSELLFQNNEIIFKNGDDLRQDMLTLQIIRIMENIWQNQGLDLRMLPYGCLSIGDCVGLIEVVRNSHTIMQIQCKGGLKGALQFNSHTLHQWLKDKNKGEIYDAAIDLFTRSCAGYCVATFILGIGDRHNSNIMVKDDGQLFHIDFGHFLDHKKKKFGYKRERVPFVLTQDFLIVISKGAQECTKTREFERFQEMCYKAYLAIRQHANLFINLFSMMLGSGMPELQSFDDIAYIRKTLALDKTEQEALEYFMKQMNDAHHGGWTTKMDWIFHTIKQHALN
SMILES,IC50 (breast line MDA468),IC50 (prostate line LNCap),IC50 (PI3K [1]; PI3 Kinase γ),IC50 (PI3K [2]; PI3 Kinase α),IC50 (Human mTOR (FLAG-TOR)),IC50 (PI3K [1]; [3]),IC50 (PI3K [2]; [4]),IC50 (Human mTOR (FLAG-TOR); [5])
"CNC(=O)Nc1ccc(-c2nc(N3CC4CCC(C3)O4)c3cnn(C4CCC(O)CC4)c3n2)cc1 (centres unmarked) [Example 107, 1-(4-(4-(8-oxa-3-azabicyclo[3.2.1]octan-3-yl)-1-(4-hydroxycyclohexyl)-1H-pyrazolo[3,4-d]pyrimidin-6-yl)phenyl)-3-methylurea]",0.19 µM,0.048 µM,5 µM,1.31 µM,0.00024 µM,–,–,–
"COCC(COC)n1ncc2c(N3CC4CCC(C3)O4)nc(-c3ccc(NC(=O)Nc4cccnc4)cc3)nc21 [Example 326, 1-(4-{1-[2-methoxy-1-(methoxymethyl)ethyl]-4-(8-oxa-3-azabicyclo[3.2.1]oct-3-yl)-1H-pyrazolo[3,4-d]pyrimidin-6-yl}phenyl)-3-pyridin-3-ylurea]",0.15 µM,0.03 µM,–,–,–,9.53 µM,1.18 µM,0.00265 µM
"O=C(Nc1ccc(-c2nc(N3CC4CCC(C3)O4)c3cnn(C4CCC5(CCCO5)CC4)c3n2)cc1)Nc1ccc(N2CCNCC2)cc1 (single isomer, unassigned) [Example 314, 1-(4-{4-(8-oxa-3-azabicyclo[3.2.1]oct-3-yl)-1-[(5r,8r)-1-oxaspiro[4.5]dec-8-yl]-1H-pyrazolo[3,4-d]pyrimidin-6-yl}phenyl)-3-(4-piperazin-1-ylphenyl)urea]",0.015 µM,0.001 µM,–,–,–,2.02 µM,0.511 µM,0.000455 µM
"O=C(Nc1ccc(-c2nc(N3CC4CCC(C3)O4)c3cnn(CC(F)(F)F)c3n2)cc1)Nc1ccc(N2CCNCC2)cc1 [Example 317, 1-{4-[4-(8-oxa-3-azabicyclo[3.2.1]oct-3-yl)-1-(2,2,2-trifluoroethyl)-1H-pyrazolo[3,4-d]pyrimidin-6-yl]phenyl}-3-(4-piperazin-1-ylphenyl)urea]",0.001 µM,< 0.001 µM,–,–,–,> 10 µM,0.077 µM,0.000255 µM
"CCOC(=O)Nc1ccc(-c2nc(N3CC4CCC(C3)O4)c3cnn(CCO)c3n2)cc1 [Example 208, ethyl {4-[1-(2-hydroxyethyl)-4-(8-oxa-3-azabicyclo[3.2.1]oct-3-yl)-1H-pyrazolo[3,4-d]pyrimidin-6-yl]phenyl}carbamate]",0.9 µM,0.22 µM,> 10 µM,1.85 µM,0.0082 µM,–,–,–
"COC(=O)N1CCC(n2ncc3c(N4CC5CCC(C4)O5)nc(-c4ccc(NC(=O)NCCN)cc4)nc32)CC1 [Example 168, methyl 4-[6-(4-{[(2-aminoethyl)carbamoyl]amino}phenyl)-4-(8-oxa-3-azabicyclo[3.2.1]oct-3-yl)-1H-pyrazolo[3,4-d]pyrimidin-1-yl]piperidine-1-carboxylate]",9 µM,1.5 µM,3.22 µM,0.218 µM,0.00315 µM,–,–,–
"CC(C)n1ncc2c(N3CC4CCC(C3)O4)nc(-c3ccc(NC(=O)OCCCO)cc3)nc21 [Example 145, 3-hydroxypropyl {4-[1-isopropyl-4-(8-oxa-3-azabicyclo[3.2.1]oct-3-yl)-1H-pyrazolo[3,4-d]pyrimidin-6-yl]phenyl}carbamate]",12 µM,0.25 µM,> 10 µM,3.36 µM,0.00275 µM,–,–,–
"O=C(Nc1ccc(-c2nc(N3CC4CCC(C3)O4)c3cnn(CC(F)(F)F)c3n2)cc1)NC1CC1 [Example 395, 1-cyclopropyl-3-{4-[4-(8-oxa-3-azabicyclo[3.2.1]oct-3-yl)-1-(2,2,2-trifluoroethyl)-1H-pyrazolo[3,4-d]pyrimidin-6-yl]phenyl}urea]",0.06 µM,0.004 µM,–,–,–,8 µM,1.46 µM,0.00048 µM
"CN1CCN(c2ccc(NC(=O)Nc3ccc(-c4nc(N5CC6CCC(C5)O6)c5cnn(CCO)c5n4)cc3)cn2)CC1 [Example 205, 1-{4-[1-(2-hydroxyethyl)-4-(8-oxa-3-azabicyclo[3.2.1]oct-3-yl)-1H-pyrazolo[3,4-d]pyrimidin-6-yl]phenyl}-3-[6-(4-methylpiperazin-1-yl)pyridin-3-yl]urea]",0.08 µM,0.09 µM,3.57 µM,0.202 µM,0.0017 µM,–,–,–
"CNC(=O)Nc1ccc(-c2nc(N3CC4CCC(C3)O4)c3cnn(CCF)c3n2)cc1 [Example 241, 1-{4-[1-(2-fluoroethyl)-4-(8-oxa-3-azabicyclo[3.2.1]oct-3-yl)-1H-pyrazolo[3,4-d]pyrimidin-6-yl]phenyl}-3-methylurea]",0.23 µM,0.11 µM,> 10 µM,0.551 µM,0.00095 µM,–,–,–
"O=C(Nc1ccc(-c2nc(N3CC4CCC(C3)O4)c3cnn(C4CCC5(CC4)OCCO5)c3n2)cc1)OCC(F)(F)F [Example 129, 2,2,2-trifluoroethyl {4-[1-(1,4-dioxaspiro[4.5]dec-8-yl)-4-(8-oxa-3-azabicyclo[3.2.1]oct-3-yl)-1H-pyrazolo[3,4-d]pyrimidin-6-yl]phenyl}carbamate]",4.9 µM,0.8 µM,> 10 µM,> 10 µM,0.0104 µM,–,–,–
"CCn1ncc2c(N3CC4CCC(C3)O4)nc(-c3ccc(NC(=O)NC4CC4)cc3)nc21 [Example 43, 1-cyclopropyl-3-{4-[1-ethyl-4-(8-oxa-3-azabicyclo[3.2.1]oct-3-yl)-1H-pyrazolo[3,4-d]pyrimidin-6-yl]phenyl}urea]",0.25 µM,0.052 µM,> 10 µM,1.76 µM,0.0004 µM,–,–,–
"CCn1ncc2c(N3CC4CCC(C3)O4)nc(-c3ccc(NC(=O)Nc4ccc(N5CCNCC5)cc4)cc3)nc21 [Example 288, 1-{4-[1-ethyl-4-(8-oxa-3-azabicyclo[3.2.1]oct-3-yl)-1H-pyrazolo[3,4-d]pyrimidin-6-yl]phenyl}-3-(4-piperazin-1-ylphenyl)urea]",0.05 µM,< 0.001 µM,0.534 µM,0.053 µM,0.000575 µM,–,–,–
"CN1CCN(C2CCC(n3ncc4c(N5CC6CCC(C5)O6)nc(-c5ccc(NC(=O)NCCF)cc5)nc43)CC2)CC1 (centres unmarked) [Example 371, 1-(2-fluoroethyl)-3-(4-{1-[4-(4-methylpiperazin-1-yl)cyclohexyl]-4-(8-oxa-3-azabicyclo[3.2.1]oct-3-yl)-1H-pyrazolo[3,4-d]pyrimidin-6-yl}phenyl)urea]",0.46 µM,0.19 µM,–,–,–,8.93 µM,2.49 µM,0.0013 µM
"COC(=O)N1CCC(n2ncc3c(N4C5CCC4COC5)nc(-c4ccc(NC(=O)Nc5ccncc5)cc4)nc32)CC1 [Example 362, methyl 4-[4-(3-oxa-8-azabicyclo[3.2.1]oct-8-yl)-6-{4-[(pyridin-4-ylcarbamoyl)amino]phenyl}-1H-pyrazolo[3,4-d]pyrimidin-1-yl]piperidine-1-carboxylate]",0.01 µM,0.003 µM,–,–,–,2 µM,1.93 µM,0.00026 µM
"CC(C)(C)OC(=O)N1CCC(n2ncc3c(N4CC5CCC(C4)O5)nc(-c4ccc(NC(=O)Nc5ccncc5)cc4)nc32)CC1 [Example 25, tert-butyl 4-[4-(8-oxa-3-azabicyclo[3.2.1]oct-3-yl)-6-{4-[(pyridin-4-ylcarbamoyl)amino]phenyl}-1H-pyrazolo[3,4-d]pyrimidin-1-yl]piperidine-1-carboxylate]",0.07 µM,0.038 µM,1.64 µM,0.595 µM,0.00047 µM,–,–,–
